According to US9150579B2, “Selective PI3K delta inhibitors” (Rhizen Pharmaceuticals SA, priority 2012, dated 2015):

What was measured:
[1] = Metabolic stability in mouse liver microsomes; type: in vitro ADME; conditions: 1 μM test item, 60 minutes, NADPH
Protocol: Metabolic stability studies were conducted using mouse, rat, and human liver microsomes. The protocol for the studies with mouse, rat, and human liver microsomes (all from BD Gentest, USA) is provided below. In brief, 0.4 mg protein was preincubated with 2 mM NADPH (cofactor) in phosphate buffer (pH˜7.4) for 15 min at 37° C. and then added with 1 μM test item and incubated further for 60 minutes in triplicate. The reaction mixture was terminated with methanol containing an internal standard and centrifuged further to analyze the test item remaining in the supernatant by LC-MS/MS. The percent parent compound remaining was calculated in comparison with similar samples terminated at 0 minutes.

PI3K delta = PI3K delta (Homo sapiens (Human), UniProt O00329); assay: Assay 1: Fluorescent (HTRF) determination of PI3K enzyme activity, delta; type: biochemical
Protocol: (§1) The homogenous time resolved fluorescence (HTRF) assay allows detection of 3,4,5-triphosphate (PIP3) formed as a result of phosphorylation of phosphotidylinositol 4,5-biphosphate (PIP2) by PI3K isoforms such as α, β, γ or δ.
(§2) PI3K isoform activity for α, β, γ or δ was determined using a PI3K human HTRF™ Assay Kit (Millipore, Billerica, Mass.) with modifications. All incubations were carried out at room temperature. […] After the initial incubation, 5 μl/well of 400 μM ATP was added and incubated for an additional 30 minutes. Reaction was terminated by adding 5 μl/well stop solution (Millipore, Billerica, Mass.). Five microliters of detection mix (Millipore, Billerica, Mass.) were then added to each well and was incubated for 6-18 h in the dark. HRTF ratio was measured on a microplate reader (BMG Labtech., Germany) at an excitation wavelength of 337 nm and emission wavelengths of 665 and 620 nm with an integration time of 400 μsec.

PI3K β = PI3K β (Homo sapiens (Human), UniProt P42338); assay: Assay 1: Fluorescent (HTRF) determination of PI3K enzyme activity, beta; type: biochemical
Sequence of PI3K β (P42338 whole entry): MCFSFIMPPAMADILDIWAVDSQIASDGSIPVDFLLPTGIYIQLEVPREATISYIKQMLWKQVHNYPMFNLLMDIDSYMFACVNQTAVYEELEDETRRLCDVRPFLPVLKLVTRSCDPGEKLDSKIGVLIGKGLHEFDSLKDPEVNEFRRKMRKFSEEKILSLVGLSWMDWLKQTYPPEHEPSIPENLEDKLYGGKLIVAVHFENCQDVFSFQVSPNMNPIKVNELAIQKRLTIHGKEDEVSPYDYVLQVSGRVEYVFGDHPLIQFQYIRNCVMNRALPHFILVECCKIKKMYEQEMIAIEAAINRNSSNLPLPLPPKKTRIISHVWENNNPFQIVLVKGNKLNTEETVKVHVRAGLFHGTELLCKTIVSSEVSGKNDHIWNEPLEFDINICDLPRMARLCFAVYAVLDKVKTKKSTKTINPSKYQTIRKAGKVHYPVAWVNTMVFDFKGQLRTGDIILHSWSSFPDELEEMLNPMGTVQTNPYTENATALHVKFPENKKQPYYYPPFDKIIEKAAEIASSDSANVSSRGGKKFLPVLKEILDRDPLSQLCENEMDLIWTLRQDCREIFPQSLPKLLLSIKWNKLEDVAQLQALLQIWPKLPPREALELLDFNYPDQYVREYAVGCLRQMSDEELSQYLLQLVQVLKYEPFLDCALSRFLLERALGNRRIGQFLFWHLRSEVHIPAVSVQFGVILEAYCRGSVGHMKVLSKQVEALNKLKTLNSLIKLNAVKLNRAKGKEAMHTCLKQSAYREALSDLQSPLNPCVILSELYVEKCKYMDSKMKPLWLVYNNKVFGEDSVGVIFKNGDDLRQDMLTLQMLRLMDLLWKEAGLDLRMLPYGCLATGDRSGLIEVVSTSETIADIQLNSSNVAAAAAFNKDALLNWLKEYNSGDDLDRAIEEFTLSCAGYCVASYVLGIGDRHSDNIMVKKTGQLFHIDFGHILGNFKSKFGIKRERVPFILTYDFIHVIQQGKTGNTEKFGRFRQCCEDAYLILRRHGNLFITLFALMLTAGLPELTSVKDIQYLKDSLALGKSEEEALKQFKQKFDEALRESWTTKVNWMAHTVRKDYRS
Sequence of PI3K β (P27986 whole entry partner): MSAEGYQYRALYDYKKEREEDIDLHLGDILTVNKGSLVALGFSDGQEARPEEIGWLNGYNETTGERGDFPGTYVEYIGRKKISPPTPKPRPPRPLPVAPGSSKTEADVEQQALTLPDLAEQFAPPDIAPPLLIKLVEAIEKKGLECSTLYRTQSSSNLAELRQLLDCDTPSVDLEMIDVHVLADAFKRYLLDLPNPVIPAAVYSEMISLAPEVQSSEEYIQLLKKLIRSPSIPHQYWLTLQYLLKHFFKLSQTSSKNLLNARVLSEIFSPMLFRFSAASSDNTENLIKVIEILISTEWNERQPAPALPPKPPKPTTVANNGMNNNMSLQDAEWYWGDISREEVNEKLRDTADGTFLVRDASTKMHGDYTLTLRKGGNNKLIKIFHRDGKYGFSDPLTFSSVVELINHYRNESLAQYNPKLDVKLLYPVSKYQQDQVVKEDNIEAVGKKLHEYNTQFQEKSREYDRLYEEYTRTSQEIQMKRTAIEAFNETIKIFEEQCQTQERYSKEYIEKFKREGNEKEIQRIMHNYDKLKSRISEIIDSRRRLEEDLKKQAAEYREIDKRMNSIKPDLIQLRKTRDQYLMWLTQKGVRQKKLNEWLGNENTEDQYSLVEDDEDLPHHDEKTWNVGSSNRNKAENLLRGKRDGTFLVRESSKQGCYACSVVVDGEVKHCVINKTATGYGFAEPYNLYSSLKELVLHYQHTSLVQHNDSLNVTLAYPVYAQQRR
Protocol: as §1
as §2, with “dark.” for “dark. HRTF ratio was measured on a microplate reader (BMG Labtech., Germany) at an excitation wavelength of 337 nm and emission wavelengths of 665 and 620 nm with an integration time of 400 μsec.”

[2] = test system: AKT phosphorylation in THP-1, HL-60, MOLT-4, RPMI-8226, or DLBCL cells; assay: Assay 3: Inhibition of AKT phosphorylation in leukemic cell lines; type: cell-based; conditions: 48 hours, Western Blotting
Protocol: Inhibition of AKT phosphorylation in leukemic cell lines: THP-1, HL-60, MOLT-4, RPMI-8226, or DLBCL cells were incubated with desired concentrations of compound for 48 hours. Cells were lysed and pAKT was determined by Western Blotting. Bands were quantified using ImageJ and normalized to actin.

PI3Kα = PI3Kα (Mus musculus (Mouse), UniProt P42337); conditions: Cell-based; versus PI3Kδ
Sequence of PI3Kα (P42337 whole entry, canonical isoform): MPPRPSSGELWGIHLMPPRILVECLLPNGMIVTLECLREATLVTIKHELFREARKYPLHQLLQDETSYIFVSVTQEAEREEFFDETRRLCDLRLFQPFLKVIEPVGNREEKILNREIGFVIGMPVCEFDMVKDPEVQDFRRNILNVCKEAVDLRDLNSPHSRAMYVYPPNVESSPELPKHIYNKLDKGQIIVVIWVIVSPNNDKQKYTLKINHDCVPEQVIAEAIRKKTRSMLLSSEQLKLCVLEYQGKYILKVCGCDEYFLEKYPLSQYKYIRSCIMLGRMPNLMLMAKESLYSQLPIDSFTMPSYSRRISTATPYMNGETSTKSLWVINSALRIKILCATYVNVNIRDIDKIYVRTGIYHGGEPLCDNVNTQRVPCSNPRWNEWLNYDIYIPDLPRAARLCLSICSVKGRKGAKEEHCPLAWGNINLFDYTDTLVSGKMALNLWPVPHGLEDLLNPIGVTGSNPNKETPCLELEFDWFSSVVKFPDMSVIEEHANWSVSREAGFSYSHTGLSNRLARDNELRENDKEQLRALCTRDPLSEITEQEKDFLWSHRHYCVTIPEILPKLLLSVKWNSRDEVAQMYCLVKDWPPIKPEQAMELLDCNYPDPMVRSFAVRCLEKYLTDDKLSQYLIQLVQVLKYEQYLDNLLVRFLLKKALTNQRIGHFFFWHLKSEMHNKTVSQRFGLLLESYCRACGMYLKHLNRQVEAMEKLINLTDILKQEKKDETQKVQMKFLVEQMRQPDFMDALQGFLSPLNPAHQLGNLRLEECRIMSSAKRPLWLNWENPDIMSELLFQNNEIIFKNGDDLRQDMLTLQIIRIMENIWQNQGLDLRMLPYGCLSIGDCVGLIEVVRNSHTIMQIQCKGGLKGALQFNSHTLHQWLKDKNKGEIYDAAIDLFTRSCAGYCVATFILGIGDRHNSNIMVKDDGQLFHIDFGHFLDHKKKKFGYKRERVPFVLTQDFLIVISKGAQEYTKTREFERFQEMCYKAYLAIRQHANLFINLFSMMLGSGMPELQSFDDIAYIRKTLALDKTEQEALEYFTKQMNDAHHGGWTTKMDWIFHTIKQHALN
Sequence of PI3Kα (P26450 whole entry partner, canonical isoform): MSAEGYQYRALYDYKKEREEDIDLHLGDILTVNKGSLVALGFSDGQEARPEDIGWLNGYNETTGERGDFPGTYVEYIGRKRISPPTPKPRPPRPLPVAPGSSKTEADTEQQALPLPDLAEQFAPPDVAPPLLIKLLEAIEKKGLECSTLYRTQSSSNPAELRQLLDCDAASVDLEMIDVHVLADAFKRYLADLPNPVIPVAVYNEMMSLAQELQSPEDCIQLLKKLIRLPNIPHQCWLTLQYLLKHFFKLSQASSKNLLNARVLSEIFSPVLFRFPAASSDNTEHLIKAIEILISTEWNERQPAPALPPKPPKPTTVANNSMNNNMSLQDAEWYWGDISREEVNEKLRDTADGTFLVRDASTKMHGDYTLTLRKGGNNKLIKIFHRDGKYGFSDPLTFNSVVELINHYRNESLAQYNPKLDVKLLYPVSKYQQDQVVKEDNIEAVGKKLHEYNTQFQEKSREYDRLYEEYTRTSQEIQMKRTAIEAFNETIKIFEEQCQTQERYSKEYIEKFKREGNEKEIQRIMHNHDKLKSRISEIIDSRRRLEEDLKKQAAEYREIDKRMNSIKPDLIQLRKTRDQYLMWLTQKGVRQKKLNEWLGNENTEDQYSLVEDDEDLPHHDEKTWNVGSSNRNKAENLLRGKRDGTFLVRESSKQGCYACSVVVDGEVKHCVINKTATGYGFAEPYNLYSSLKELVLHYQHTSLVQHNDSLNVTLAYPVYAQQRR
Protocol: (§3) Compound specificity towards PI3Kδ was determined in an IgM-induced B cell proliferation assay. B-cells isolated from blood of healthy subjects were seeded in a 96-well tissue culture plate and incubated with desired concentrations of compound for 30 min. Cells were stimulated with 5 μg/ml purified goat anti-human IgM. Growth was assessed using the 3-[4,5-dimethylthiazol-2-yl]-2,5-diphenyltetrazolium bromide (MTT) dye reduction test. For selectivity against PI3K α, β, or γ isoforms, NIH-3T3 or RAW macrophages were seeded in a 6-well tissue culture plate and incubated overnight. Complete medium was replaced with serum-free media the following day and compound at the desired concentrations were added. After 15 minutes, 20 ng/ml PDGF, 5 μM LPA, or 50 ng/ml c5a was added and incubated for an additional 10 minutes. Cells were lysed and AKT phosphorylation was determined by Western Blotting. Intensity of the bands was determined using ImageJ 1.42q (NIH, USA) and normalized to Actin (loading control).

PI3Kβ = PI3Kβ (Mus musculus (Mouse), UniProt Q8BTI9); conditions: Cell-based; versus PI3Kδ
Protocol: as §3

PI3Kγ = PI3Kγ (Mus musculus (Mouse), UniProt Q9JHG7); conditions: Cell-based; versus PI3Kδ
Sequence of PI3Kγ (Q9JHG7 whole entry): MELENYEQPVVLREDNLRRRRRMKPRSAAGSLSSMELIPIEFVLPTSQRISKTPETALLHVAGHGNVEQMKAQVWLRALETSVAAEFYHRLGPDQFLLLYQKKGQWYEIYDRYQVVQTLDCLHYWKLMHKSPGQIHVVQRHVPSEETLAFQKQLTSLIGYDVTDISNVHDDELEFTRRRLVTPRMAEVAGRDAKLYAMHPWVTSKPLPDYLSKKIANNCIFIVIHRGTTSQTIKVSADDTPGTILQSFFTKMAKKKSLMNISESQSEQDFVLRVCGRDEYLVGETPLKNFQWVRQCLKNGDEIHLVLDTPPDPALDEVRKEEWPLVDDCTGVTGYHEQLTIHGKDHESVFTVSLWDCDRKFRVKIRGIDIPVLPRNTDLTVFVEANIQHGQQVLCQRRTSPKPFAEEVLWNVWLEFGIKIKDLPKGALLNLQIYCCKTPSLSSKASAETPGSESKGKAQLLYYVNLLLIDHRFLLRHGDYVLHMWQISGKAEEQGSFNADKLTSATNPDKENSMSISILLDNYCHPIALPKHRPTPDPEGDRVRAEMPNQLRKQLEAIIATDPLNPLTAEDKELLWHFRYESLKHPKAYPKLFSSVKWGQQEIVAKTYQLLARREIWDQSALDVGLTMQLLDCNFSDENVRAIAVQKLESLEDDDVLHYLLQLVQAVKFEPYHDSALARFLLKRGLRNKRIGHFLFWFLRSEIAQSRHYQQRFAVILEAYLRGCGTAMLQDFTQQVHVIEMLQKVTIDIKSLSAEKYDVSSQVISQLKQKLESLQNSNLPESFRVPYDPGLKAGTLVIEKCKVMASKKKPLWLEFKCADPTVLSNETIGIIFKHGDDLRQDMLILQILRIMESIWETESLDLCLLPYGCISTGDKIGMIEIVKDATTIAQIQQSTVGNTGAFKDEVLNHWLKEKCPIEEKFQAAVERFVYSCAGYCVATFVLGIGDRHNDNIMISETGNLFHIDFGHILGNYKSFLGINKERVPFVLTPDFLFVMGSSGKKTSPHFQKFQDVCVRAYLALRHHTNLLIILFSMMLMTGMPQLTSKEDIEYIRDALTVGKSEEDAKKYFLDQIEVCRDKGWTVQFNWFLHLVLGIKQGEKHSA
Protocol: as §3

leukemic cells = assay: Assay 5: Apoptosis in leukemic cell lines (in situ Caspase 3 kit); type: cell-based; conditions: 24 hrs
Protocol: Apoptosis in leukemic cells was determined using an in situ Caspase 3 kit (Millipore, US) as outlined below: • Seed leukemic cells at a density of 1×10^6 cells/well in a 6 well plate • Add test compound/DMSO at desired concentrations • Incubate the plate for 24 hrs at 37° C. in 5% CO2 incubator • Collect cells in a 2 ml centrifuge tube • Add 1.6 μL of freshly prepared 5× FLICA reagent and mix cells by slightly flicking the tubes • Incubate tubes for 1 hour at 37° C. under 5% CO2 • Add 2 ml of 1× wash buffer to each tube and mix • Centrifuge cells at <400×g for 5 minutes at room temperature. • Carefully remove and discard supernatant, and gently vortex cell pellet to disrupt any cell-to-cell clumping. • Resuspend cell pellet in 300 ul of 1× wash buffer • Place 100 μL of each cell suspension into each of two wells of a black microtiter plate. Avoid creation of bubbles. • Read […] of each microwell using an excitation wavelength of 490 nm and an emission wavelength of 520 nm • Percent increase in caspase-3 activity manifested by an increase in fluorescence compared to the control blank is to be calculated.

[3] = test system: pAKT in AML patient bone marrow leukemic cells; assay: Assay 6-II: pAKT analysis of AML patient bone marrow sample (pAKT ELISA); type: cell-based, human
Protocol: 6-II: pAKT analysis of AML patient bone marrow sample using pAKT ELISA kit: Mononuclear cells were extracted by the Ficoll method and seeded in plates. The cells were treated by different compounds for 48 hrs before they were analyzed by pAKT ELISA kit following the product protocol. Briefly, 1×10^6 cells were transferred into an ELISA kit well and lyzed with 10 μL 5× Cell Lysis Mix (phospho-AKT 1/2/3 (Ser473) InstantOne™ ELISA Kit, eBioscience, 85-86042). The cells were then incubated with 50 μl antibody cocktail for 1 hr at room temp. on a microplate shaker (˜300 rpm). After incubating with detection reagent, the result was measured using a SpectraMAX Plus microplate spectrophotometer set at 450 nm.

[4] = test system: PI3Kδ signalling in basophils; assay: Assay 4: Inhibition of PI3Kδ signalling in basophils from human whole blood (anti-FcεR1 induced CD63 expression); conditions: read-out: EC50, inhibition of anti-FcεR1 mediated CD63 expression
Protocol: PI3Kδ signalling in basophils manifested by an alteration of anti-FcεR1 induced CD63 expression is a useful pharmacodynamic marker determined using the Flow2CAST® kit (Buhlmann Laboratories, Switzerland). Briefly, it involves the following steps: • Mix the anti-coagulated blood sample by inverting the venipuncture tube several times • Prepare fresh and pyrogen-free 3.5 ml polypropylene or polystyrene tubes suitable for Flow Cytometry measurements • Add 49 μl of patient's whole blood to each tube. • Add 1 μl of 10% DMSO (background) or compound (10% DMSO) to the assigned tubes and mix gently. Incubate at room temperature for 15 min • Pipette 50 μl of the Stimulation buffer (background) or anti-FcεRI Ab to each tube • Add 100 μl of Stimulation Buffer to each tube • Mix gently. […] (using an incubator will take about 10 minutes longer incubation time due to less efficient heat transfer) • Add 2 ml pre-warmed (18-28° C.) Lysing Reagent to each tube, mix gently • Incubate for 5-10 minutes at 18-28° C. • Centrifuge the tubes for 5 minutes at 500×g • Decant the supernatant by using blotting paper • Resuspend the cell pellet with 300-800 μl of Wash Buffer • Vortex gently and acquire the data on the flow cytometer within the same day. • Percent CD63 positive cells within the gated basophil population are to be determined in different treatment groups and normalized to vehicle control.

In the case of `CC(C)Oc1ccc(-c2nn([C@@H](C)c3oc4ccccc4c(=O)c3-c3cccc(F)c3)c3ncnc(N)c23)cc1F` [Compound A1, (S)-2-(1-(4-amino-3-(3-fluoro-4-isopropoxyphenyl)-1H-pyrazolo[3,4-d]pyrimidin-1-yl)ethyl)-3-(3-fluorophenyl)-4H-chromen-4-one], the “Metabolic stability in liver microsomes, Mouse (percent parent compound remaining)” value [1] is reported as 46.1%, the IC50 (PI3K delta) is reported as 0.0138 µM and the inhibition at 1 µM (PI3K β) is reported as 47.9%. The “Fold-Selectivity PI3Kβ” value (PI3K β; Enzyme, versus PI3Kδ) was over 54 fold, the inhibition at 1 µM [2] was 50 to 90% and the “Fold-Selectivity PI3Kα” value (PI3Kα) was over 1000 fold. For the same molecule, the “Fold-Selectivity PI3Kβ” value (PI3Kβ) was over 30 fold, the “Fold-Selectivity PI3Kγ” value (PI3Kγ) was over 8 fold and the Caspase-3 activity (leukemic cells) was “dose-dependently induced Caspase-3 activity”. For the same molecule, the “AKT phosphorylation (dose dependence)” value [3] was “dose dependent reduction”, the inhibition at 0.3 µM ([3]; Homo sapiens, Bone marrow cell, 0.3 μM, 48 hrs) was over 50% and the EC50 [4] was at most 0.1 µM.
